Assay results reported in ChEMBL document CHEMBL1201861, “Genomics of Drug Sensitity in Cancer screening data, Wellcome Trust Sanger Institute”.

Tests used:
Experiment in all cases: cells
KU812 cell line = assay type: functional, cell-based; conditions: Homo sapiens;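 also: growth inhibition of KU812 cells, read out with a cell viability assay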
Description: SANGER: Inhibition of human KU812 cell growth in a cell viability assay.

SNB-75 = assay type: functional, cell-based, Homo sapiens; conditions: Homo sapiens, SNB-75;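 also: cell viability assay measuring growth inhibition of human SNB-75 cells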
Description: SANGER: Inhibition of human SNB75 cell growth in a cell viability assay.

BFTC-909 = assay type: functional, cell-based, Homo sapiens; conditions: Homo sapiens, BFTC-909
Description: SANGER: Inhibition of human BFTC-909 cell growth in a cell viability assay.

NCI-H1993 = assay type: functional, cell-based, Homo sapiens; conditions: Homo sapiens, NCI-H1993;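 also: growth inhibition of the cancer cell line, assessed with a cell viability assay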
Description: SANGER: Inhibition of human NCI-H1993 cell growth in a cell viability assay.

MHH-PREB-1 = assay type: functional, cell-based; conditions: Homo sapiens;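 also: cell viability assay measuring inhibition of proliferation of human MHH-PREB-1 cells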
Description: SANGER: Inhibition of human MHH-PREB-1 cell growth in a cell viability assay.

HCT-116 = assay type: functional, cell-based, Homo sapiens; conditions: Homo sapiens, HCT-116
Description: SANGER: Inhibition of human HCT-116 cell growth in a cell viability assay.

DSH1 = assay type: functional, cell-based, Homo sapiens; conditions: Homo sapiens, DSH1;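 also: growth inhibition of human DSH1 cells, measured with a cell viability readout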
Description: SANGER: Inhibition of human DSH1 cell growth in a cell viability assay.

SNU1 = assay type: functional, cell-based; conditions: Homo sapiens;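 also: growth inhibition of human NCI-SNU-1 cells, measured with a cell viability assay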
Description: SANGER: Inhibition of human NCI-SNU-1 cell growth in a cell viability assay.

VM-CUB-1 = assay type: functional, cell-based; conditions: Homo sapiens;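 also: cell viability assay measuring growth inhibition of the human VM-CUB-1 cell line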
Description: SANGER: Inhibition of human VM-CUB-1 cell growth in a cell viability assay.

MFE-280 = assay type: functional, cell-based, Homo sapiens; conditions: Homo sapiens, MFE-280;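 also: growth inhibition of MFE-280 cells, determined with a cell viability readout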
Description: SANGER: Inhibition of human MFE-280 cell growth in a cell viability assay.

SBC-5 = assay type: functional, cell-based, Homo sapiens; conditions: Homo sapiens, SBC-5;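 also: cell viability assay read-out, IC50 is the concentration that inhibits growth of the cells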
Description: SANGER: Inhibition of human SBC-5 cell growth in a cell viability assay.

CHP-212 = assay type: functional, cell-based, Homo sapiens; conditions: Homo sapiens, CHP-212
Description: SANGER: Inhibition of human CHP-212 cell growth in a cell viability assay.

L-428 = assay type: functional, cell-based; conditions: Homo sapiens
Description: SANGER: Inhibition of human L-428 cell growth in a cell viability assay.

JEG-3 = assay type: functional, cell-based, Homo sapiens; conditions: Homo sapiens, JEG-3;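 also: growth inhibition of human JEG-3 cells, read out with a cell viability assay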
Description: SANGER: Inhibition of human JEG-3 cell growth in a cell viability assay.

LB2241-RCC = assay type: functional, cell-based, Homo sapiens; conditions: Homo sapiens, LB2241-RCC;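 also: cell viability assay measuring how strongly the cultured human renal carcinoma line is prevented from growing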
Description: SANGER: Inhibition of human LB2241-RCC cell growth in a cell viability assay.

SW1573 = assay type: functional, cell-based, Homo sapiens; conditions: Homo sapiens, SW1573;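 also: growth inhibition of SW1573 cells, read out with a cell viability assay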
Description: SANGER: Inhibition of human SW1573 cell growth in a cell viability assay.

NCI-H1623 = assay type: functional, cell-based, Homo sapiens; conditions: Homo sapiens, NCI-H1623;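 also: cell viability assay used as the read-out for growth inhibition of NCI-H1623 cells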
Description: SANGER: Inhibition of human NCI-H1623 cell growth in a cell viability assay.

SJSA-1 = assay type: functional, cell-based, Homo sapiens; conditions: Homo sapiens, SJSA-1;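 also: growth inhibition of human SJSA-1 cells, read out through a cell viability measurement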
Description: SANGER: Inhibition of human SJSA-1 cell growth in a cell viability assay.

LB996-RCC = assay type: functional, cell-based; conditions: Homo sapiens
Description: SANGER: Inhibition of human LB996-RCC cell growth in a cell viability assay.

NCI-H226 = assay type: functional, cell-based, Homo sapiens; conditions: Homo sapiens, NCI-H226;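 also: cell viability read-out used to gauge growth inhibition of the cells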
Description: SANGER: Inhibition of human NCI-H226 cell growth in a cell viability assay.

SW13 = assay type: functional, cell-based, Homo sapiens; conditions: Homo sapiens, SW13;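 also: IC50 is inhibition of SW13 cell growth, read out with a cell viability assay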
Description: SANGER: Inhibition of human SW13 cell growth in a cell viability assay.

KYSE-150 cell line = assay type: functional, cell-based, Homo sapiens; conditions: Homo sapiens, KYSE-150;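 also: growth inhibition of human KYSE-150 cells, read out with a cell viability assay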
Description: SANGER: Inhibition of human KYSE-150 cell growth in a cell viability assay.

LOX IMVI = assay type: functional, cell-based; conditions: Homo sapiens
Description: SANGER: Inhibition of human LOXIMVI cell growth in a cell viability assay.

M14 = assay type: functional, cell-based, Homo sapiens; conditions: Homo sapiens, M14;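 also: growth inhibition of M14 cells, read out with a cell viability assay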
Description: SANGER: Inhibition of human M14 cell growth in a cell viability assay.

CAL-54 = assay type: functional, cell-based, Homo sapiens; conditions: Homo sapiens, CAL-54;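 also: growth inhibition of CAL-54 cells, read out by a viability measurement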
Description: SANGER: Inhibition of human CAL-54 cell growth in a cell viability assay.

OVCAR-3 = assay type: functional, cell-based, Homo sapiens; conditions: Homo sapiens, OVCAR-3;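 also: growth inhibition of human OVCAR-3 cells, determined by a cell viability assay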
Description: SANGER: Inhibition of human OVCAR-3 cell growth in a cell viability assay.

KM12 = assay type: functional, cell-based, Homo sapiens; conditions: Homo sapiens, KM12;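 also: KM12 cell growth inhibition, read out with a cell viability assay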
Description: SANGER: Inhibition of human KM12 cell growth in a cell viability assay.

HN = assay type: functional, cell-based, Homo sapiens; conditions: Homo sapiens, HN
Description: SANGER: Inhibition of human HN cell growth in a cell viability assay.

HT-1080 = assay type: functional, cell-based, Homo sapiens; conditions: Homo sapiens, HT-1080
Description: SANGER: Inhibition of human HT-1080 cell growth in a cell viability assay.

DMS-114 = assay type: functional, cell-based, Homo sapiens; conditions: Homo sapiens, DMS-114
SCH = assay type: functional, cell-based, Homo sapiens; conditions: Homo sapiens, SCH;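 also: growth inhibition of human SCH cells, read out in a cell viability assay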
Description: SANGER: Inhibition of human SCH cell growth in a cell viability assay.

Lu-65 = assay type: functional, cell-based; conditions: Homo sapiens;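 also: growth inhibition of Lu-65 cancer cells, read out by a cell viability assay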
Description: SANGER: Inhibition of human LU-65 cell growth in a cell viability assay.

TCC-SUP = assay type: functional, cell-based, Homo sapiens; conditions: Homo sapiens, TCC-SUP;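 also: growth inhibition of TCC-SUP cells, read out with a cell viability assay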
Description: SANGER: Inhibition of human TCCSUP cell growth in a cell viability assay.

BV-173 = assay type: functional, cell-based; conditions: Homo sapiens
Description: SANGER: Inhibition of human BV-173 cell growth in a cell viability assay.

NUGC-3 = assay type: functional, cell-based, Homo sapiens; conditions: Homo sapiens, NUGC-3;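 also: growth inhibition of human NUGC-3 cells, read out with a cell viability assay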
Description: SANGER: Inhibition of human NUGC-3 cell growth in a cell viability assay.

no-10 = assay type: functional, cell-based, Homo sapiens; conditions: Homo sapiens;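 also: growth inhibition of no-10 cells, read out with a cell viability assay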
Description: SANGER: Inhibition of human no-10 cell growth in a cell viability assay.

SW1990 = assay type: functional, cell-based, Homo sapiens; conditions: Homo sapiens, SW1990;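 also: cell growth inhibition determined with a viability assay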
Description: SANGER: Inhibition of human SW1990 cell growth in a cell viability assay.

MDA-MB-157 = assay type: functional, cell-based, Homo sapiens; conditions: Homo sapiens, MDA-MB-157
Description: SANGER: Inhibition of human MDA-MB-157 cell growth in a cell viability assay.

MZ2-MEL = assay type: functional, cell-based, Homo sapiens; conditions: Homo sapiens, MZ2-MEL;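 also: growth inhibition of MZ2-MEL cells read out with a cell viability assay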
Description: SANGER: Inhibition of human MZ2-MEL cell growth in a cell viability assay.

C32 = assay type: functional, cell-based, Homo sapiens; conditions: Homo sapiens, C32;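 also: cell viability assay, with IC50 reflecting inhibition of C32 cell growth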
Description: SANGER: Inhibition of human C32 cell growth in a cell viability assay.

SK-MEL-2 = assay type: functional, cell-based, Homo sapiens; conditions: Homo sapiens, SK-MEL-2;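 also: growth inhibition of human SK-MEL-2 cells measured with a cell viability assay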
Description: SANGER: Inhibition of human SK-MEL-2 cell growth in a cell viability assay.

ES7 = assay type: functional, cell-based, Homo sapiens; conditions: Homo sapiens, ES7;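 also: growth inhibition of cultured human ES7 cells, read out as cell viability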
Description: SANGER: Inhibition of human ES7 cell growth in a cell viability assay.

ES4 = assay type: functional, cell-based, Homo sapiens; conditions: Homo sapiens, ES4;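 also: growth inhibition of human ES4 cells, read out by a cell viability assay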
Description: SANGER: Inhibition of human ES4 cell growth in a cell viability assay.

NCI-H661 = assay type: functional, cell-based, Homo sapiens; conditions: Homo sapiens, NCI-H661;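 also: cell viability assay read-out, IC50 being the concentration that inhibits growth of the cells by half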
Description: SANGER: Inhibition of human NCI-H661 cell growth in a cell viability assay.

KALS-1 = assay type: functional, cell-based, Homo sapiens; conditions: Homo sapiens, KALS-1;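 also: growth inhibition of KALS-1 cells, determined with a cell viability assay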
Description: SANGER: Inhibition of human KALS-1 cell growth in a cell viability assay.

VMRC-RCZ = assay type: functional, cell-based; conditions: Homo sapiens;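 also: growth inhibition measured with a cell viability assay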
Description: SANGER: Inhibition of human VMRC-RCZ cell growth in a cell viability assay.

CHL-1 = assay type: functional, cell-based, Homo sapiens; conditions: Homo sapiens, CHL-1;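 also: cell growth inhibition, read out with a cell viability assay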
Description: SANGER: Inhibition of human CHL-1 cell growth in a cell viability assay.

TGW = assay type: functional, cell-based; conditions: Homo sapiens;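 also: growth inhibition of human TGW cells, read out with a cell viability assay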
Description: SANGER: Inhibition of human TGW cell growth in a cell viability assay.

RCC10RGB = assay type: functional, cell-based, Homo sapiens; conditions: Homo sapiens, RCC10RGB;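 also: growth inhibition of human RCC10RGB cells, read out by a cell viability assay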
Description: SANGER: Inhibition of human RCC10RGB cell growth in a cell viability assay.

no-11 = assay type: functional, cell-based, Homo sapiens; conditions: Homo sapiens;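 also: growth inhibition of human NO-11 cells, read out with a cell viability assay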
Description: SANGER: Inhibition of human no-11 cell growth in a cell viability assay.

NCI-H82 = assay type: functional, cell-based; conditions: Homo sapiens;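 also: growth inhibition of NCI-H82 cells, measured with a cell viability readout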
Description: SANGER: Inhibition of human NCI-H82 cell growth in a cell viability assay.

HuCCT-1 = assay type: functional, cell-based, Homo sapiens, HuCCT1; conditions: Homo sapiens, HuCCT-1;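 also: growth inhibition of HuCCT-1 cells, read out by a cell viability assay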
Description: SANGER: Inhibition of human HuCCT1 cell growth in a cell viability assay.

COc1cc([C@@H]2c3cc4c(cc3[C@@H](O[C@@H]3O[C@@H]5CO[C@@H](C)O[C@H]5[C@H](O)[C@H]3O)[C@H]3COC(=O)[C@H]23)OCO4)cc(OC)c1O [ETOPOSIDE] showed an IC50 (KU812 cell line) of 2.03 µM, an IC50 (SNB-75) of 10.9 µM and an IC50 (BFTC-909) of 1.16 µM. For the same compound, the IC50 (NCI-H1993) was greater than 16 µM, the IC50 (MHH-PREB-1) was greater than 16 µM and the IC50 (HCT-116) was 1.01 µM. It also gave an IC50 (DSH1) of 2.36 µM, an IC50 (SNU1) of 1.75 µM and an IC50 (VM-CUB-1) of 2.58 µM. For the same compound, the IC50 (MFE-280) was greater than 16 µM, the IC50 (SBC-5) was 0.303 µM and the IC50 (CHP-212) was 1.41 µM. For the same compound, the IC50 (L-428) was 2.99 µM, the IC50 (JEG-3) was 3.04 µM and the IC50 (LB2241-RCC) was greater than 16 µM. For the same compound, the IC50 (SW1573) was 2.25 µM, the IC50 (NCI-H1623) was 14 µM and the IC50 (SJSA-1) was 2.98 µM. It also gave an IC50 (LB996-RCC) greater than 16 µM, an IC50 (NCI-H226) of 11.2 µM and an IC50 (SW13) of 1.8 µM. It also gave an IC50 (KYSE-150 cell line) of 0.53 µM, an IC50 (LOX IMVI) greater than 16 µM and an IC50 (M14) of 7.95 µM. For the same compound, the IC50 (CAL-54) was 8.92 µM, the IC50 (OVCAR-3) was greater than 16 µM and the IC50 (KM12) was 1.88 µM. For the same compound, the IC50 (HN) was greater than 16 µM, the IC50 (HT-1080) was 0.109 µM and the IC50 (DMS-114) was greater than 16 µM. The IC50 (SCH) was greater than 16 µM, the IC50 (Lu-65) was greater than 16 µM and the IC50 (TCC-SUP) was 11.6 µM. For the same compound, the IC50 (BV-173) was 5.05 µM, the IC50 (NUGC-3) was 0.981 µM and the IC50 (no-10) was 3.49 µM. The IC50 (SW1990) was 5.64 µM, the IC50 (MDA-MB-157) was 12.6 µM and the IC50 (MZ2-MEL) was 2.18 µM. The IC50 (C32) was greater than 16 µM, the IC50 (SK-MEL-2) was greater than 16 µM and the IC50 (ES7) was 0.767 µM. For the same compound, the IC50 (ES4) was 0.521 µM, the IC50 (NCI-H661) was 4.34 µM and the IC50 (KALS-1) was 10.3 µM. It also gave an IC50 (VMRC-RCZ) of 1.97 µM, an IC50 (CHL-1) of 0.883 µM and an IC50 (TGW) greater than 16 µM. For the same compound, the IC50 (RCC10RGB) was greater than 16 µM, the IC50 (no-11) was 7.56 µM and the IC50 (NCI-H82) was greater than 16 µM. The IC50 (HuCCT-1) was 1.91 µM.
